# Like-named read-outs stand apart in the source and are kept apart here.
# How the values were obtained:
# [1] = system: DNBS-Induced Inflammatory Bowel Disease Models in Rats; assay: Biological Example 1: DNBS-induced inflammatory bowel disease models in rats; assay type: in vivo, Wistar rats; settings: for Adhesion Degree / Colon MPO Activity / Colon Weight / Colon weight to length ratio / Ulcer Area: sixth day, Mean ± SD
# Method: Wistar rats, male, body weight of 100-120 g.
# 90 male Wistar rats were fasted for 40 hours. A 5% glucose injection was administered subcutaneously during fasting. 60 rats with normal conditions and moderate body weight were selected from the fasting rats. The animals were randomly divided into 6 groups according to the body weight: normal control group, model control group, sulfasalazine group (300 mg/Kg), and the compound in Example 27 groups consisting of 5, 15 and 30 mg/Kg dose groups. There were 10 rats in each group. The animals were anesthetized with ether. A specially made gavage device (made by a rat gavage device having the diameter of 2 mm, which was nested on a mouse gavage device having the diameter of 1 mm) was slowly inserted into the enteric cavity at 8 cm from the anus. The model control group, the sulfasalazine group and the compound in Example 27 groups were administered with 0.5 mL of 50 mg/mL DNBS in 30% ethanol solution. The normal control group was administered with 0.5 mL of 30% ethanol solution. The animals were inverted in anesthesia for 15 minutes after the gavage device was removed. The day when the model was prepared was the first day of the experiment. After 4 hours of DNBS induction, the corresponding drug or the corresponding volume of 1% CMC-Na was administered once per day. The body weights were recorded and the stool characteristics were scored. On the sixth day of the experiment colon tissues were taken from the animals to observe the results of each index.
# The compound in Example 27 and sulfasalazine: Preparation Method: Suspended with 1% CMC-Na, and prepared when it was needed.
# Animals were euthanized on the sixth day of the experiment to observe the results of each index. After the animals were sacrificed, colons were obtained. The adhesion degree of colon was observed and the length of the colon was measured. The ulcer area was calculated after removing the contents in the colon and the weight of the colon tissue was weighed. The colon tissue was longitudinally divided into two parts. One part of the colon tissue was fixed in 10% formalin solution for later use. The other part of the colon tissue was put into the liquid nitrogen to quickly frozen, and then was reserved at −80° C. for the detection of MPO.
# Calculation method for ulcer area: length of ulcer point (cm)×width of ulcer point (cm).
# The frozen tissue was ground into powder in liquid nitrogen. An appropriate amount of the powder was weighed and was added into 50 mM potassium phosphate solution (containing 0.5% cetyltrimethylammonium bromide) to give a 25 mg/mL solution. The resultant solution was homogenized by an electric homogenizer. 1 mL of suspension was centrifuged to give a supernatant. 7 μL of the supernatant was added into a 96-well plate and 200 μL of o-dianisidine mixture (containing 0.167 mg/mL o-dianisidine and 0.0006% H2O2 potassium phosphate buffer). OD values of the resultant solution at 0, 30, 60, and 90 s were detected at 450 nm of the microplate reader.
# Test for homogeneity of variance was performed with Spss13.0. Where variance of data was homogeneous (P>0.05), one-way ANOVA LSD test was performed. Where the analysis of variance was significant (P<0.05), then Dunnett's multiple comparison (parameter method) or Kruskal-Wallis non-parametric test was performed. Where the results of Kruskal-Wallis non-parametric test were significant (P<0.05), the Mann-Whitney U test was performed for pairwise comparison.
# [2] = system: DNBS-Induced Inflammatory Bowel Disease Models in Rats; assay: Biological Example 4: DNBS-induced inflammatory bowel disease models in rats; assay type: in vivo, Wistar rats; settings: 30 mg/Kg i.g. qd × 7; for Body weight: Mean ± SD; for inhibition in vivo at 30 mg/kg: Rattus norvegicus, po, 168 h
# Method: 102 male Wistar rats were fasted for 72 hours. A 5% glucose injection was administered subcutaneously twice during fasting. 88 rats with normal conditions and moderate body weight were selected from the fasting rats. The animals were randomly divided into 11 groups according to the body weight (see Table 11. Grouped Table).
# The animals were anesthetized with ether after 72 hours fasting. A specially made gavage device was slowly inserted into the enteric cavity at 8 cm from the anus. The model control group and each test group were administered with 0.5 mL of 50 mg/mL DNBS in 30% ethanol solution. The normal control group was administered with 0.5 mL of 30% ethanol solution. The animals were inverted in anesthesia for 15 minutes. The day when the model was prepared was day 0 of the experiment. After 4 hours of DNBS induction, the corresponding drug or the corresponding volume of 1% CMC-Na was administered once per day. On day 7 of the experiment, the animals were euthanized to score the colon adhesion degree, measure the length of colon and ulcer area, weigh colon and calculate the colon weight to length ratio.
# One-way ANOVA analysis of the length of colon and colon weight per length of rats was performed by SPSS22. Statistical analyses between groups were performed. The adhesion degree was scored. Mann-Whitney U non-parametric test was performed on ulcer area. Statistical analyses between groups were performed.
# Calculation Formula of Inhibitory rate of weight increase per length: (Colon weight to length ratio in model group−Colon weight to length ratio in administration group)/(Colon weight to length ratio in model group−Colon weight to length ratio in blank group)
compound,measurement,setting,value
"COCCN1C(=O)CCC(N2C(=O)c3cccc(N)c3C2=O)C1=O (stereo not shown) [Example 27, 4-amino-2-(1-(2-methoxyethyl)-2,6-dioxopiperidin-3-yl)isoindolin-1,3-dione]",Adhesion Degree,[1]; 5 mg/Kg i.g. qd × 6,0.4 ± 0.7 Point
same,Colon MPO Activity,[1]; 5 mg/Kg i.g. qd × 6,20.3 ± 19.8 U/mg
same,Colon Weight,[1]; 5 mg/Kg i.g. qd × 6,1775.7 ± 321.0 mg
same,Colon weight to length ratio,[1]; 5 mg/Kg i.g. qd × 6,144.2 ± 30.5 mg/cm
same,Ulcer Area,[1]; 5 mg/Kg i.g. qd × 6,0.8 ± 0.9 cm^2
same,therapeutic effect (in words),"[1]; 5 mg/Kg, 15 mg/Kg and 30 mg/Kg",a certain dose effect and a good therapeutic effect without the weight loss of animals
same,Adhesion Degree,[1]; 15 mg/Kg i.g. qd × 6,0.1 ± 0.3 Point
same,Colon MPO Activity,[1]; 15 mg/Kg i.g. qd × 6,16.7 ± 9.8 U/mg
same,Colon Weight,[1]; 15 mg/Kg i.g. qd × 6,1668.7 ± 245.3 mg
same,Colon weight to length ratio,[1]; 15 mg/Kg i.g. qd × 6,127.1 ± 13.7 mg/cm
same,Ulcer Area,[1]; 15 mg/Kg i.g. qd × 6,0.7 ± 0.9 cm^2
same,Adhesion Degree,[1]; 30 mg/Kg i.g. qd × 6,0.1 ± 0.3 Point
same,Colon MPO Activity,[1]; 30 mg/Kg i.g. qd × 6,15.1 ± 13.0 U/mg
same,Colon Weight,[1]; 30 mg/Kg i.g. qd × 6,1534.7 ± 156.2 mg
same,Colon weight to length ratio,[1]; 30 mg/Kg i.g. qd × 6,117.7 ± 19.4 mg/cm
same,Ulcer Area,[1]; 30 mg/Kg i.g. qd × 6,0.3 ± 0.5 cm^2
same,reduction of the ulcer area,"[1]; 30 mg/Kg, vs model control group",about 80%
same,Colon weight to length ratio,[2]; day 7,106 ± 14 mg/cm
same,Ulcer area of colon,[2]; day 7,0.4 ± 0.6 cm^2
same,Body weight,[2]; Day 1,125.5 ± 8.4 g
same,Body weight,[2]; Day 2,124.4 ± 8.1 g
same,Body weight,[2]; Day 3,125.8 ± 8.2 g
same,Body weight,[2]; Day 4,133.1 ± 9.2 g
same,Body weight,[2]; Day 5,141.6 ± 12.0 g
same,Body weight,[2]; Day 6,146.7 ± 11.8 g
same,Body weight,[2]; Day 7,156.3 ± 11.0 g
same,inhibition in vivo at 30 mg/kg,"[2]; day 7, read-out: Inhibitory rate of ulcer area of colon",83.3%
same,inhibition in vivo at 30 mg/kg,"[2]; day 7, read-out: Inhibitory rate of weight increase per length",65.9%
